In patent publication US9617221B2, “Kinase modulators for the treatment of cancer” (Synovo GmbH, priority 2010, dated 2017):
Values joined by “and” are separate entries in the source; they are usually repeats but may differ in a detail not shown here. Equal values may be shown once.

Legend:
Assay type in all cases: cell-based, mice
[1] = tested on: NO; assay: NO production by LPS-stimulated macrophages; settings: 10 μM, 72 h
[2] = tested on: IL-6; assay: IL-6 production by LPS-stimulated macrophages; settings: 10 μM, 72 h
Description: (§1) Peritoneal macrophage or splenocytes (lymphocytes and macrophage) were harvested from donor mice using standard techniques. Cells were placed in culture and stimulated with either LPS (10 μg/mL) or concanavalin A 5 μg/mL (Sigma Chemical Co., St Louis, Mo.) in RPMI-1640 medium supplemented with antibiotics, […] 2-mercaptoethanol, 10 mm HEPES buffer and 10% fetal calf serum (FCS) (see Holan et al., 1985) to stimulate macrophage and T-cells respectively. Compounds were added from DMSO stock solutions to a final concentration of 50 μM or less with DMSO not exceeding 1% of total volume. After 72 h, cell supernatant was recovered and the cytokine levels were estimated by ELISA. The effect of compounds on cytokine production was recorded as follows: […]

[3] = tested on: IL-10; assay: IL-10 production by LPS-stimulated murine peritoneal macrophage (ELISA); settings: for IL-10 by ELISA, % of solvent treated control: murine peritoneal macrophage; for IL-10 (LPS, Macrophages), amount of cytokine: 10 μM, 72 h
Description: as §1

[4] = tested on: IFN-g; assay: IFN-g production by ConA-stimulated T cells; settings: 10 μM, 72 h
Description: as §1

[5] = tested on: IL-1β; assay: IL-1β production by LPS-stimulated macrophages; settings: 5 μM, 72 h
Description: as §1

[6] = tested on: T cells; assay: Proliferation of Con A-stimulated T cells; settings: 10 μM
Description: as §1

[7] = tested on: IL-2; assay: IL-2 production by ConA-stimulated T cells; settings: 10 μM, 72 h
Description: as §1

[8] = tested on: IL-10; assay: IL-10 production by ConA-stimulated T cells; settings: 10 μM, 72 h
Description: as §1

[9] = tested on: IL-4; assay: IL-4 production, Con A, spleen; settings: 5 μM, 72 h
Description: as §1

[10] = tested on: B cells; assay: Proliferation of LPS-stimulated B cells; settings: 10 μM

For `CC[C@H]1OC(=O)[C@H](C)[C@@H](OC2CC(C)(OC)C(O)C(C)O2)[C@H](C)[C@@H](OC2OC(C)CC(NC)C2O)C(C)(O)C[C@@H](C)C(=O)[C@H](C)[C@@H](O)C1(C)O` (some centres unmarked) [Compound 16, 3′-desmethyl erythromycin], the “NO (LPS, Macrophages), % of control treated with solvent alone” value (“NO (LPS, Macrophages), %” for short) [1] was 63 % of control treated with solvent alone, the “IL-6 (LPS, Macrophages), amount of cytokine” value (from here on “IL-6 (LPS, Macrophages)”) [2] was 85 % of control treated with solvent alone and the “IL-10 by ELISA, % of solvent treated control” value (“IL-10 by ELISA, %” for short) ([3]; 1 μM inhibitor in medium) was 117 % of solvent treated control. The “IL-10 by ELISA, %” value ([3]; 5 μM inhibitor in medium) was 99 % of solvent treated control, the “IL-10 by ELISA, %” value ([3]; 20 μM inhibitor in medium) was 8 % of solvent treated control and the “IFN-g (ConA, T cells), amount of cytokine” value (“IFN-g (ConA, T cells)” below) [4] was 2 % of control treated with solvent alone. The “IL-1β (Macrophages, LPS), amount of cytokine” value (“IL-1β (Macrophages, LPS)” below) [5] was 85 % of control treated with solvent alone and the “Proliferation (Con A, T cells)” value [6] was 0 % of control treated with solvent alone.
With `CC[C@H]1OC(=O)[C@H](C)[C@@H](O[C@H]2C[C@@](C)(OC)[C@@H](O)[C@H](C)O2)[C@H](C)[C@@H](O[C@@H]2O[C@H](C)C[C@H](N(C)CC3CO3)[C@H]2O)[C@](C)(O)C[C@@H](C)C(=O)[C@H](C)[C@@H](O)[C@]1(C)O` (some centres unmarked) [Compound 18, 3′-desmethyl-3′-oxiranylmethyl erythromycin] the “NO (LPS, Macrophages), %” value [1] was 47 % of control treated with solvent alone and 54 % of control treated with solvent alone and 65 % of control treated with solvent alone, the “IL-6 (LPS, Macrophages)” value [2] was 90 % of control treated with solvent alone and 109 % of control treated with solvent alone and 106 % of control treated with solvent alone and the “IL-10 by ELISA, %” value ([3]; 1 μM inhibitor in medium) was 124 % of solvent treated control. The “IL-10 by ELISA, %” value ([3]; 5 μM inhibitor in medium) was 109 % of solvent treated control, the “IL-10 by ELISA, %” value ([3]; 10 μM inhibitor in medium) was 109 % of solvent treated control and the “IL-10 (LPS, Macrophages), amount of cytokine” value (from here on “IL-10 (LPS, Macrophages)”) [3] was 110 % of control treated with solvent alone and 108 % of control treated with solvent alone. The “IL-10 by ELISA, %” value ([3]; 20 μM inhibitor in medium) was 57 % of solvent treated control, the “IL-2 (ConA, T cells), amount of cytokine” value [7] was 52 % of control treated with solvent alone and 86 % of control treated with solvent alone and the “IL-10 (ConA, T cells), amount of cytokine” value (“IL-10 (ConA, T cells)” for short) [8] was 38 % of control treated with solvent alone and 70 % of control treated with solvent alone. For the same compound, the “IL-1β (Macrophages, LPS)” value [5] was 104 % of control treated with solvent alone and 81 % of control treated with solvent alone and 70 % of control treated with solvent alone and the “IL-4 (Con A, spleen), amount of cytokine” value [9] was 91 % of control treated with solvent alone and 84 % of control treated with solvent alone.
In the case of `CC[C@H]1OC(=O)[C@H](C)[C@@H](O[C@H]2C[C@@](C)(OC)[C@@H](O)[C@H](C)O2)[C@H](C)[C@@H](O[C@@H]2O[C@H](C)C[C@H](N(C)CC(O)CSc3nc(-c4ccc(F)cc4)c(-c4ccncc4)[nH]3)[C@H]2O)[C@](C)(O)C[C@@H](C)CN(C)[C@H](C)[C@@H](O)[C@]1(C)O` (some centres unmarked) [Compound 20], the “IL-10 by ELISA, %” value ([3]; 1.25 μM inhibitor in medium) is reported as −11 % of solvent treated control, the “IL-10 by ELISA, %” value ([3]; 5 μM inhibitor in medium) is reported as −12 % of solvent treated control and the “IL-10 by ELISA, %” value ([3]; 20 μM inhibitor in medium) is reported as −12 % of solvent treated control. For the same compound, the “IL-1β (Macrophages, LPS)” value [5] was 34 % of control treated with solvent alone, the “IL-4 (Con A, spleen), amount of cytokine” value [9] was −5 % of control treated with solvent alone and the “Proliferation (Con A, T cells)” value [6] was 0 % of control treated with solvent alone. The “Proliferation (LPS, B cells)” value [10] was −1 % of control treated with solvent alone.
`CC[C@H]1OC(=O)[C@H](C)[C@@H](O[C@H]2C[C@@](C)(OC)[C@@H](O)[C@H](C)O2)[C@H](C)[C@@H](O[C@@H]2O[C@H](C)C[C@H](N(C)CC(O)CSc3nc(-c4ccc(F)cc4)c(-c4ccncc4)[nH]3)[C@H]2O)[C@](C)(O)C[C@@H](C)C(=O)[C@H](C)[C@@H](O)[C@]1(C)O` (some centres unmarked) [Compound 21] was tested, and the “IL-6 (LPS, Macrophages)” value [2] was 101 % of control treated with solvent alone, the “IL-10 by ELISA, %” value ([3]; 0.31 μM inhibitor in medium) was 132 % of solvent treated control and the “IL-10 by ELISA, %” value ([3]; 1.25 μM inhibitor in medium) was 95 % of solvent treated control. For the same compound, the “IL-10 by ELISA, %” value ([3]; 5 μM inhibitor in medium) was 1 % of solvent treated control, the “IL-10 by ELISA, %” value ([3]; 10 μM inhibitor in medium) was −13 % of solvent treated control and the “IL-10 by ELISA, %” value ([3]; 20 μM inhibitor in medium) was −8 % of solvent treated control. For the same compound, the “IFN-g (ConA, T cells)” value [4] was 0 % of control treated with solvent alone and the “IL-1β (Macrophages, LPS)” value [5] was 101 % of control treated with solvent alone and 143 % of control treated with solvent alone.
In the case of `CC[C@H]1OC(=O)[C@H](C)[C@@H](O)[C@H](C)[C@@H](O[C@@H]2O[C@H](C)C[C@H](N(C)CC(O)CSc3nc(-c4ccc(F)cc4)c(-c4ccncc4)[nH]3)[C@H]2O)[C@](C)(O)C[C@@H](C)CN(C)[C@H](C)[C@@H](O)[C@]1(C)O` (some centres unmarked) [Compound 22], the “NO (LPS, Macrophages), %” value [1] is reported as 69 % of control treated with solvent alone, the “IL-6 (LPS, Macrophages)” value [2] is reported as 116 % of control treated with solvent alone and the “IL-10 by ELISA, %” value ([3]; 0.31 μM inhibitor in medium) is reported as 103 % of solvent treated control. For the same compound, the “IL-10 by ELISA, %” value ([3]; 1.25 μM inhibitor in medium) was 86 % of solvent treated control, the “IL-10 by ELISA, %” value ([3]; 5 μM inhibitor in medium) was 43 % of solvent treated control and the “IL-10 by ELISA, %” value ([3]; 10 μM inhibitor in medium) was 13 % of solvent treated control. The “IL-10 (LPS, Macrophages)” value [3] was 13 % of control treated with solvent alone, the “IL-10 by ELISA, %” value ([3]; 20 μM inhibitor in medium) was −3 % of solvent treated control and the “IL-2 (ConA, T cells), amount of cytokine” value [7] was 29 % of control treated with solvent alone. The “IFN-g (ConA, T cells)” value [4] was 41 % of control treated with solvent alone, the “IL-10 (ConA, T cells)” value [8] was 144 % of control treated with solvent alone and the “IL-1β (Macrophages, LPS)” value [5] was 90 % of control treated with solvent alone and 106 % of control treated with solvent alone. The “IL-4 (Con A, spleen), amount of cytokine” value [9] was 237 % of control treated with solvent alone and 407 % of control treated with solvent alone and the “Proliferation (Con A, T cells)” value [6] was 10 % of control treated with solvent alone.
For `CC[C@H]1OC(=O)[C@H](C)[C@@H](O[C@H]2C[C@@](C)(OC)[C@@H](O)[C@H](C)O2)[C@H](C)[C@@H](O[C@@H]2O[C@H](C)C[C@H](N(C)CCCC(=O)OCC(O)COc3cccc(C(=O)c4cnn(-c5ccc(F)cc5)c4N)c3)[C@H]2O)[C@](C)(O)C[C@@H](C)CN(C)[C@H](C)[C@@H](O)[C@]1(C)O` (some centres unmarked) [Compound 43h], the “IL-10 by ELISA, %” value ([3]; 1.25 μM inhibitor in medium) was 68 % of solvent treated control, the “IL-10 by ELISA, %” value ([3]; 5 μM inhibitor in medium) was 52 % of solvent treated control and the “IL-10 by ELISA, %” value ([3]; 20 μM inhibitor in medium) was −11 % of solvent treated control. The “IL-4 (Con A, spleen), amount of cytokine” value [9] was 280 % of control treated with solvent alone.
With `CC[C@H]1OC(=O)[C@H](C)[C@@H](O[C@H]2C[C@@](C)(OC)[C@@H](O)[C@H](C)O2)[C@H](C)[C@@H](O[C@@H]2O[C@H](C)C[C@H](N(C)CCCC(=O)OCC(O)CSc3nc(-c4ccc(F)cc4)c(-c4ccnc(NC(C)c5ccccc5)c4)[nH]3)[C@H]2O)[C@](C)(O)C[C@@H](C)CN(C)[C@H](C)[C@@H](O)[C@]1(C)O` (some centres unmarked) [Compound 43i] the “IL-6 (LPS, Macrophages)” value [2] was 33 % of control treated with solvent alone and 32 % of control treated with solvent alone, the “IL-10 by ELISA, %” value ([3]; 2 μM inhibitor in medium) was 25 % of solvent treated control and the “IL-10 by ELISA, %” value ([3]; 10 μM inhibitor in medium) was 3 % of solvent treated control. For the same compound, the “IL-10 by ELISA, %” value ([3]; 50 μM inhibitor in medium) was 0 % of solvent treated control and the “IL-4 (Con A, spleen), amount of cytokine” value [9] was 8 % of control treated with solvent alone.
`CC[C@H]1OC(=O)[C@H](C)[C@@H](O[C@H]2C[C@@](C)(OC)[C@@H](O)[C@H](C)O2)[C@H](C)[C@@H](O[C@@H]2O[C@H](C)C[C@H](N(C)CCCCCC(=O)OCCSc3nc(-c4ccc(F)cc4)c(-c4ccnc(NC(C)C)c4)[nH]3)[C@H]2O)[C@](C)(O)C[C@@H](C)CN(C)[C@H](C)[C@@H](O)[C@]1(C)O` [Compound 43k] was tested, and the “NO (LPS, Macrophages), %” value [1] was −1 % of control treated with solvent alone, the “IL-6 (LPS, Macrophages)” value [2] was 22 % of control treated with solvent alone and the “IL-10 by ELISA, %” value ([3]; 2 μM inhibitor in medium) was −6 % of solvent treated control. The “IL-10 by ELISA, %” value ([3]; 10 μM inhibitor in medium) was −8 % of solvent treated control, the “IL-10 (LPS, Macrophages)” value [3] was −8 % of control treated with solvent alone and the “IL-10 by ELISA, %” value ([3]; 50 μM inhibitor in medium) was −9 % of solvent treated control. For the same compound, the “IL-2 (ConA, T cells), amount of cytokine” value [7] was 0 % of control treated with solvent alone, the “IFN-g (ConA, T cells)” value [4] was 0 % of control treated with solvent alone and the “IL-10 (ConA, T cells)” value [8] was 0 % of control treated with solvent alone. For the same compound, the “Proliferation (Con A, T cells)” value [6] was −1 % of control treated with solvent alone and the “Proliferation (LPS, B cells)” value [10] was −8 % of control treated with solvent alone.
